Assay [1] relates to Bel-7402. The experiment in a line: In vitro antitumor activity of concentration of 10-3 mol.L-1 against BEL-7402 cell line using MTT assay. Format: functional, Homo sapiens. The conditions noted are these: for inhibition: Homo sapiens. Background: Tetrazolium assays rely on reduction of a dye to a coloured formazan, in cell work by metabolically active cells.
Assay [2] concerns HXO-RB44 cell line. In words: In vitro antitumor activity of concentration of 10-6 mol.L-1 against HXO-RB44 cell line using MTT assay. It is filed as functional, Homo sapiens. The conditions noted are these: for inhibition: Homo sapiens.
The test system of assay [3] is HXO-RB44 cell line. The experiment in a line: In vitro antitumor activity of concentration of 10-4 mol.L-1 against HXO-RB44 cell line using MTT assay. It is filed as functional, Homo sapiens. The note with it: for inhibition: Homo sapiens.
The test system of assay [4] is HXO-RB44 cell line. In words: In vitro antitumor activity of concentration of 10-5 mol.L-1 against HXO-RB44 cell line using MTT assay. Format: functional, Homo sapiens. The note with it: for inhibition: Homo sapiens.
For assay [5], the system named is Bel-7402. The experiment in a line: In vitro antitumor activity of compound at a concentration 10-4 mol.L-1 against BEL-7402 cell line using MTT assay. It is filed as functional, Homo sapiens. The note with it: for inhibition: Homo sapiens.
Assay [6] deals with Bel-7402. The experiment in a line: In vitro antitumor activity of compound at a […] mol.L-1 against BEL-7402 cell line using MTT assay. It is filed as functional, cell-based. The note with it: Homo sapiens.

As to `OC1CNCCNCCNC1`, the Inhibition in assay [1] was 34%; in assay [2] it was 1%; in assay [3] it was 3%; in assay [4], 3%; in assay [5], 16%.
Regarding COPPER, the inhibition in assay [6] was determined as 2%; in assay [1], 81%; in assay [2], 0%; in assay [3] it was 5%; in assay [4] it was 3%; in assay [5], 3%.
For the compound [1,4,7]Triazecan-9-ol copper complex, the inhibition was 11% in assay [6]; 97% in assay [1]; 2% in assay [2]; 64% in assay [3]; 13% in assay [4]; 47% in assay [5].

As a reminder, the Inhibition is the change of the read-out against control, counted positive when it falls. A high value points to strong suppression. One may read the inhibition as the share of the control response that was lost under treatment. Read a low inhibition as little suppression.

(Values after ChEMBL document CHEMBL1136124, “Copper complex of hydroxyl-substituted triazamacrocyclic ligand and its antitumor activity” (2003).)
